Data set [1] concerns Rattus norvegicus. Kind of data set: AUC in Sprague-Dawley rat assessed as carbamazepine level at 5.50 mg/227 g, iv. The data set is classed as ADME, organism-based, Plasma. Particulars: in vivo.
For data set [2], the system named is Rattus norvegicus. Briefly: Cmax in Sprague-Dawley rat assessed as carbamazepine level at 5.50 mg/227 g, iv. Type of data set: ADME, organism-based. On the set-up: route intravenous. The conditions noted are these: in vivo.
In data set [3] the test system is Rattus norvegicus. Briefly: Cmax in Sprague-Dawley rat assessed as carbamazepine level at 4.54 mg/187 g, iv. Type of data set: ADME, organism-based. More on the design: route intravenous. Particulars: in vivo.
Data set [4] is described as follows: Solubility at pH 2.6. The conditions noted are these: buffer. Type of data set: physicochemical.
For data set [5], the system named is Rattus norvegicus. Kind of data set: AUC in Sprague-Dawley rat assessed as carbamazepine level at 4.54 mg/187 g, iv. Type of data set: ADME, organism-based, Plasma. Particulars: in vivo.

As a reminder, the Cmax is the highest concentration seen after dosing. What is called solubility is how much of the substance goes into solution per volume. Low readings indicate a poorly soluble substance, high ones a readily soluble substance. Consider `NCCSNC(=O)N1c2ccccc2C=Cc2ccccc21.O=C(O)C(F)(F)F`, for which the AUC in the data set on Rattus norvegicus [1] was 545 µg/min/mL; with Rattus norvegicus [5], 964 µg/min/mL. The Cmax turned out to be 16300 ng/mL with Rattus norvegicus [2] and 14100 ng/mL in the data set with Rattus norvegicus [3]. The solubility in data set [4] is 100 mg/mL.
